# Data: patent publication US20130288292A1, “SURFACE-TENSION BASED FLOW GUIDANCE IN A MICROSTRUCTURE ENVIRONMENT” (priority 2011, published 2013)
# Test system: PC3-M cells
# Assay: Immunocytochemistry staining of Ki67 in PC3-M cells embedded in 3D Matrigel
# Format: cell-based
# Details: 20 μM Cycloheximide in growth media; PC3-M cells in 3D Matrigel (90%), Iuvo Slide 3D ICC platform
# Method: FIGS. 11 A-C show immunocytochemistry staining of PC3-M Cells embedded in 3D matrix. PC3-M cells were embedded in 3D Matrigel™ (90%) on the Iuvo™ Slide—3D ICC platform (Figure A.). Once the matrix gelled, growth media (with and without 20 μM Cycloheximide) was added to the side compartments of the channel. Following incubation, the cells in the matrix were fixed by flowing reagents through the side channels and allowing sufficient time for diffusion into the gel. A standard immunocytochemistry protocol (4% formaldehyde fixative, 0.5% TX-100 permeabilization buffer, 10% goat serum blocking buffer, primary antibody for Ki67 from LabVision, and AlexaFluor®594 secondary antibody) was utilized. […] FIG. 11 C. is a graph showing the quantitative analysis of the immunocytochemistry staining of PC3-M Cells embedded in a 3D Matrix.
# Another embodiment of the invention provides a device that enables the use of assay methods requiring multiple liquid replacement, or wash steps that require the diffusion of large biomolecules, in matrices that are very dense, such as Matrigel™. For example, it is becoming increasingly clear that the lack of a native three dimensional tissue microenvironment seriously limits the utility and accuracy of cellular assays, many of which rely on immunocytochemistry as an endpoint. […]
structure (smiles),measurement,value
C[C@@H]1C[C@@H]([C@H](O)CC2CC(=O)NC(=O)C2)C(=O)[C@@H](C)C1 [Cycloheximide],proliferation marker Ki67 (immunocytochemistry staining),loss of proliferation marker
